Legend:
Assay in all cases: relative viability (nuclei count vs DMSO), 5 days (fraction); higher = more cells survive
Vismodegib + Luminespib = compound: CS(=O)(=O)c1ccc(C(=O)Nc2ccc(Cl)c(-c3ccccn3)c2)c(Cl)c1 [Vismodegib] + CCNC(=O)c1noc(-c2cc(C(C)C)c(O)cc2O)c1-c1ccc(CN2CCOCC2)cc1 [Luminespib] (partner 0.01 µM)
Procedure, shortened: (§1)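 Lung cancer cell lines were pin-tool dosed in 1536-well plates on the day after seeding, with either a lone drug or a fixed anchor-drug dose plus five library-drug doses (not always all listed) in √10 steps. Nuclei were counted on 4× images after 5 days. Relative viability is the ratio of treated-well to vehicle-well nuclei counts, with each value a median of duplicate plates.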

Ruxolitinib + Luminespib = compound: N#CC[C@H](C1CCCC1)n1cc(-c2ncnc3[nH]ccc23)cn1 [Ruxolitinib] + CCNC(=O)c1noc(-c2cc(C(C)C)c(O)cc2O)c1-c1ccc(CN2CCOCC2)cc1 [Luminespib] (partner 0.01 µM)
Procedure, shortened: as §1

Ruxolitinib + Crizotinib = compound: N#CC[C@H](C1CCCC1)n1cc(-c2ncnc3[nH]ccc23)cn1 [Ruxolitinib] + C[C@@H](Oc1cc(-c2cnn(C3CCNCC3)c2)cnc1N)c1c(Cl)ccc(F)c1Cl [Crizotinib] (partner 1 µM)
Procedure, shortened: as §1

Ruxolitinib + Phenformin = compound: N#CC[C@H](C1CCCC1)n1cc(-c2ncnc3[nH]ccc23)cn1 [Ruxolitinib] + N=C(N)NC(=N)NCCc1ccccc1 [Phenformin] (partner 250 µM)
Procedure, shortened: as §1

Row | Cell Line | relative viability (Vismodegib + Luminespib; first compound 0.08 µM) | relative viability (Vismodegib + Luminespib; first compound 0.253 µM) | relative viability (Vismodegib + Luminespib; first compound 0.8 µM) | relative viability (Vismodegib + Luminespib; first compound 2.53 µM) | relative viability (Vismodegib + Luminespib; first compound 8 µM) | relative viability (Ruxolitinib + Luminespib; first compound 0.253 µM) | relative viability (Ruxolitinib + Luminespib; first compound 0.8 µM) | relative viability (Ruxolitinib + Luminespib; first compound 2.53 µM) | relative viability (Ruxolitinib + Luminespib; first compound 8 µM) | relative viability (Ruxolitinib + Crizotinib; first compound 0.253 µM) | relative viability (Ruxolitinib + Crizotinib; first compound 0.8 µM) | relative viability (Ruxolitinib + Crizotinib; first compound 2.53 µM) | relative viability (Ruxolitinib + Crizotinib; first compound 8 µM) | relative viability (Ruxolitinib + Phenformin; first compound 0.253 µM) | relative viability (Ruxolitinib + Phenformin; first compound 0.8 µM) | relative viability (Ruxolitinib + Phenformin; first compound 2.53 µM) | relative viability (Ruxolitinib + Phenformin; first compound 8 µM) | relative viability (Ruxolitinib + Luminespib; first compound 0.08 µM) | relative viability (Ruxolitinib + Crizotinib; first compound 0.08 µM) | relative viability (Ruxolitinib + Phenformin; first compound 0.08 µM)
1 | NCI-H1650 | 0.214 | 0.192 | 0.212 | 0.178 | 0.18 | 0.196 | 0.198 | 0.214 | 0.197 | 0.9 | 1.11 | 0.83 | 0.848 | 0.315 | 0.455 | 0.388 | 0.331 |  |  | 
2 | NCI-H2023 | 0.634 | 0.789 | 0.891 | 0.68 | 0.794 | 0.74 | 0.674 | 0.438 | 0.568 | 0.574 | 0.746 | 0.704 | 0.719 | 0.373 | 0.428 | 0.358 | 0.328 | 0.73 | 0.533 | 0.383
3 | SK-LU-1 | 0.206 | 0.201 | 0.22 | 0.216 | 0.223 | 0.204 | 0.255 | 0.182 | 0.207 | 1 | 1.08 | 0.847 | 0.584 | 0.529 | 0.637 | 0.433 | 0.422 | 0.185 | 1.01 | 0.551
4 | NCI-H2347 | 0.402 | 0.759 | 0.709 | 0.399 | 0.586 | 0.456 | 0.41 | 0.302 | 0.676 | 0.586 | 0.764 | 0.67 | 0.651 | 0.406 | 0.453 | 0.533 | 0.505 | 0.519 | 0.665 | 0.385
5 | NCI-H727 | 0.428 | 0.518 | 0.322 | 0.359 | 0.422 | 0.357 | 0.655 | 0.35 | 0.2 | 0.799 | 1.1 | 0.832 | 0.962 | 0.55 | 0.576 | 0.599 | 0.848 | 0.3 | 0.93 | 0.505
6 | COR-L23 | 0.672 | 0.779 | 0.586 | 0.675 | 0.75 | 0.738 | 0.676 | 0.511 | 0.519 | 0.681 | 0.733 | 0.7 | 0.433 | 0.407 | 0.45 | 0.439 | 0.354 | 0.749 | 0.717 | 0.457
7 | NCI-H2126 | 0.84 | 0.921 | 0.809 | 0.851 | 0.82 | 0.922 | 1.13 | 0.933 | 0.784 | 1.11 | 1.02 | 1.03 | 0.984 | 0.474 | 0.568 | 0.528 | 0.522 | 0.879 | 0.996 | 0.518
8 | NCI-H1703 |  |  |  |  |  |  |  |  |  | 0.611 | 0.832 | 0.497 | 0.241 |  |  |  |  |  | 0.643 | 
9 | H3255 | 0.798 | 0.996 | 0.799 | 0.818 | 0.857 | 0.881 | 1.07 | 0.841 | 0.865 | 0.752 | 1.12 | 0.806 | 0.849 | 0.339 | 0.289 | 0.295 | 0.405 | 0.85 |  | 0.232
